Results as given in patent US20140271742A1, “SKIN TANNING USING PEPTIDES AND OTHER COMPOSITIONS” (priority 2013, published 2014).

How the values were obtained:
[1] = Laser Doppler capillary blood flow in humans, 10,000 ppm NO in closed Hilltop chamber (Example 5); type: in vivo, human; details: applied to the skin at 1/10% in alcohol
Description: The formulation used in these studies contained nitric oxide dispersed in a lipid matrix. […] Nitric oxide is a very rapid acting molecule, and these studies used a system that employed laser Doppler with a covered chamber. The formulation was placed into the chamber and then attached to the skin by an adhesive layer on the covering. This provided a stable measuring device as determined by multiple normal evaluations of the capillary blood flow without treatment of nitric oxide.
A known positive control, methyl nicotinate, was applied to the skin at a concentration of 1/10% in alcohol. […] The vascular dynamics are such that when the blood vessels dilate physical parameters follow Bernoulli's law. This states that as one increases the diameter of a tube containing a liquid to flow will increase but the pressure and the speed of the liquid will decrease. The laser Doppler device accurately measured these parameters.
The test product was labeled as 10,000 ppm NO (nitric oxide). The study participants had 100 mg of the test product applied in a closed Hilltop chamber on the forearm. […]
A Moor Instruments DRT4 Laser Doppler Blood Flow Monitor (Devon, England) was used in these studies. The laser Doppler technique measured blood flow in the microcapillaries of the skin that are close to the skin surface and the blood flow in underlying arterioles and venules that help to regulate skin temperature. […]

[2] = Laser Doppler circulation in five human subjects, NO creams and controls (Example 8); type: in vivo; details: positive control formulation containing 0.1% methyl nicotinate
Description: This example illustrates delivery of nitric oxide formulations to five human subjects, using procedures and formulations similar to those discussed in Example 5. Each person served as their own control for the testing. A Moor Instruments Laser Doppler was used to determine circulation. […] The formulations used produce positive, almost immediate results when applied to the skin which, in these studies, was manifested by vasodilatation of the cutaneous vascular system.
For each subject, the following creams were applied: a negative control formulation (containing no NO), 0.010 gram of a 10,000 ppm NO formulation, 0.020 gram of a 10,000 ppm NO formulation, and a positive control formulation containing 0.1% methyl nicotinate. The formulations were prepared using procedures similar to those discussed in Example 1.

In the case of `COC(=O)c1cccnc1` [methyl nicotinate], the “Laser Doppler response of positive control” value [1] is reported as “rapid response typical of the vasodilator” and the “Vasodilatation (laser Doppler)” value [2] is reported as “vasodilatation was observed”.
